This is an account of results in patent publication US20090232838A1, “Ligands of melanocortin receptors” (priority 2005, published 2009).

Each structure is given as a SMILES string. Where two headings read alike, the source gives them in different places.

Common to all, as to assay type: cell-based
One test concerns the target T1, hMC1-R (Homo sapiens, UniProt Q01726).
T1 construct: expressed in transfected cells; host or cells: CHO-K1
As to the kind of experiment: cyclic AMP bioassay, hMC1-R.

For the next test, the target named is T2, hMC4-R (Homo sapiens, UniProt P32245).
T2 construct: expressed in transfected cells; host or cells: CHO-K1
Description: cyclic AMP bioassay, hMC4-R.

A further test deals with T3, hMC5-R (Homo sapiens, UniProt P33032).
T3 construct: expressed in transfected cells; host or cells: CHO-K1
Description: cyclic AMP bioassay, hMC5-R.

The next test addresses T4, hMC3-R (Homo sapiens, UniProt P41968).
T4 construct: expressed in transfected cells; host or cells: CHO-K1
Description: cyclic AMP bioassay, hMC3-R.

Where [1] appears, read: Table 3A, cAMP in CHO-K1 cells, agonist, read-out: EC50 hMC1-R.
The mark [2] stands for this setting: Table 3A, cAMP in CHO-K1 cells, antagonist potency by Schild analysis, read-out: Kb hMC4-R.
[3] abbreviates: Table 3A, cAMP in CHO-K1 cells, agonist, read-out: EC50 hMC5-R.
The mark [4] stands for this setting: Table 3A, cAMP in CHO-K1 cells, antagonist potency by Schild analysis, read-out: Kb hMC3-R.

One may read the EC50 as the concentration giving half of the maximal effect.

T2 sequence (P32245 whole entry): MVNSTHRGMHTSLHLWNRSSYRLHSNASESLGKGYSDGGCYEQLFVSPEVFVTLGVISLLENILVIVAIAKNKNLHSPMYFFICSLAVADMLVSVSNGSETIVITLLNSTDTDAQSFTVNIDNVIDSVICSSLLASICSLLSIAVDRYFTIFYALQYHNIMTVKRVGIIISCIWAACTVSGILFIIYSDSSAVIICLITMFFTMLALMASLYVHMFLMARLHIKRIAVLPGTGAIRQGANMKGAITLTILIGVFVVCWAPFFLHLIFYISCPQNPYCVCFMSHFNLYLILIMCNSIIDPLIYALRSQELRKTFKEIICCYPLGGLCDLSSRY
T1 sequence (Q01726 whole entry): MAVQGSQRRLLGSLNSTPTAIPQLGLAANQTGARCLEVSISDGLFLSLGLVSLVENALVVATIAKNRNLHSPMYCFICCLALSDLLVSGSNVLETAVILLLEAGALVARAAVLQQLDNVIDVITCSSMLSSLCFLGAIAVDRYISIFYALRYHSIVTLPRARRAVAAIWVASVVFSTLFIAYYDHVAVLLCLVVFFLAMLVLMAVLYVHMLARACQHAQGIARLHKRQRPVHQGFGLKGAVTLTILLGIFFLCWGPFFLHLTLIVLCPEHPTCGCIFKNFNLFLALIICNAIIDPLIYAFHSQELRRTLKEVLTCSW
T3 sequence (P33032 whole entry): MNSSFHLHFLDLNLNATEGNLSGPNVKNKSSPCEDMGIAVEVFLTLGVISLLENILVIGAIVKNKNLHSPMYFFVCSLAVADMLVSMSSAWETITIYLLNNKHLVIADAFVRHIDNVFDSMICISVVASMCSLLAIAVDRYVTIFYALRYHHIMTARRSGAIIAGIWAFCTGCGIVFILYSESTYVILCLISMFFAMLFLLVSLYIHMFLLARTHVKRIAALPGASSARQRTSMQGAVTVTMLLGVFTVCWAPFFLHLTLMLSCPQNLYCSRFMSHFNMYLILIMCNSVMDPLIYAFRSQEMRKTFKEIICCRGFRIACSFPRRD
T4 sequence (P41968 whole entry): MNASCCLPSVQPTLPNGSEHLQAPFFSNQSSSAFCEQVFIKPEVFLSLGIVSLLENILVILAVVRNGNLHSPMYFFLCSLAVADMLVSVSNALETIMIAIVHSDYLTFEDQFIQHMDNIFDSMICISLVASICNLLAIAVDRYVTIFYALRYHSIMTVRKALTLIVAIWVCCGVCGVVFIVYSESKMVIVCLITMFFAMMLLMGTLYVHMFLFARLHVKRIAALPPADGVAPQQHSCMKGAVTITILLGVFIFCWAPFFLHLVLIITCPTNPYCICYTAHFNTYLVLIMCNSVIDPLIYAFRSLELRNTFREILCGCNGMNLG
Description for hMC3-R: (§1) Intracellular cyclic AMP (cAMP) levels were determined by an electrochemiluminescence (ECL) assay (Meso Scale Discovery®, Gaithersburg, Md.; referred to hereinafter as MSD). […] Transgenic CHO-K1 cells stably expressing hMC receptor subtypes 1, 3, 4 or 5 were dispensed at a density of approximately 7,000 cells/well in 384-well Multi-Arrays plates (MSD) containing integrated carbon electrodes and coated with anti-CAMP antibody. Increasing concentrations of the test compounds were added and the cells were incubated for approximately 40 minutes at approximately 37° C. […] At the end of the second incubation period read buffer (Tris-buffered solution containing an ECL co-reactant and Triton X-100 at ph 7.8) was added and the cAMP levels in the cell lysates were immediately determined by ECL detection with a Sector Imager 6000 Reader® (MSD). Data were analyzed using a computer-assisted non-linear regression analysis (XL fit; IDBS) and reported as either an EC50 value or a Kb value.
(§2) The Kb value reflects the potency of an antagonist and is determined by Schild analysis. In brief, concentration-response curves of an agonist are carried out in the presence of increasing concentrations of an antagonist. […] It is calculated by extrapolating the line on a Schild plot to zero on the y-axis.
Description for hMC4-R: as §1, §2

With `CCCC[C@H](NC(C)=O)C(=O)N[C@H]1CSSC[C@@H](C(=O)NCCC(=O)N[C@@H](Cc2ccc(O)cc2)C(=O)NCC(=O)N[C@@H](CCCNC(=N)N)C(=O)N[C@@H](CCCCN)C(=O)N[C@@H](CCCNC(=N)N)C(=O)N[C@@H](CCCNC(=N)N)C(=O)N[C@@H](CCCNC(=N)N)C(=O)N[C@@H](CCC(N)=O)C(=O)N[C@@H](CCCNC(=N)N)C(=O)N[C@@H](CCCNC(=N)N)C(=O)N[C@@H](CCCNC(=N)N)C(N)=O)NC(=O)[C@H](Cc2c[nH]c3ccccc23)NC(=O)[C@H](CCCNC(=N)N)NC(=O)[C@@H](Cc2ccccc2)NC(=O)[C@H](Cc2c[nH]cn2)NC(=O)[C@@H](C)NC1=O`, the EC50 at hMC1-R is 0.00757 µM; on hMC4-R it was 0.0006 µM; on hMC5-R, 1.79 µM; on hMC3-R, 0.00418 µM.

`CCCC[C@H](NC(C)=O)C(=O)N[C@H]1CSSC[C@@H](C(=O)NCCC(=O)N[C@@H](Cc2ccc(O)cc2)C(=O)NCC(=O)N[C@@H](CCCNC(=N)N)C(=O)N[C@@H](CCCNC(=N)N)C(=O)N[C@@H](CCCCN)C(=O)N[C@@H](CCCNC(=N)N)C(=O)N[C@@H](CCCNC(=N)N)C(=O)N[C@@H](CCC(N)=O)C(=O)N[C@@H](CCCNC(=N)N)C(=O)N[C@@H](CCCNC(=N)N)C(=O)N[C@@H](CCCNC(=N)N)C(N)=O)NC(=O)[C@H](Cc2c[nH]c3ccccc23)NC(=O)[C@H](CCCNC(=N)N)NC(=O)[C@@H](Cc2ccccc2)NC(=O)[C@H](Cc2c[nH]cn2)NC(=O)[C@@H](C)NC1=O`: the concentration giving a half-maximal response (EC50) at hMC1-R was 0.00566 µM; at hMC4-R, 0.000422 µM; on hMC5-R it was 1.55 µM; at hMC3-R it was 0.0047 µM.

In the case of `CCCC[C@H](NC(C)=O)C(=O)N[C@H]1CSSC[C@@H](C(=O)NCCC(=O)NCC(=O)N[C@@H](CCCNC(=N)N)C(=O)N[C@@H](CCCNC(=N)N)C(=O)N[C@@H](CCCCN)C(=O)N[C@@H](CCCNC(=N)N)C(=O)N[C@@H](CCCNC(=N)N)C(=O)N[C@@H](CCC(N)=O)C(=O)N[C@@H](CCCNC(=N)N)C(=O)N[C@@H](CCCNC(=N)N)C(=O)N[C@@H](CCCNC(=N)N)C(N)=O)NC(=O)[C@H](Cc2c[nH]c3ccccc23)NC(=O)[C@H](CCCNC(=N)N)NC(=O)[C@@H](Cc2ccccc2)NC(=O)[C@H](Cc2c[nH]cn2)NC(=O)[C@@H](C)NC1=O`, the EC50 at hMC1-R was found to be 0.00236 µM; at hMC4-R it was 0.00026 µM; at hMC5-R it was 0.5 µM; at hMC3-R it was 0.00274 µM.

As for `CC(=O)N[C@H]1CSSC[C@@H](C(=O)N2CCC[C@H]2C(=O)N2CCC[C@H]2C(=O)N[C@@H](CCCCN)C(=O)N[C@@H](CC(=O)O)C(=O)NCCC(=O)N[C@@H](Cc2ccc(O)cc2)C(=O)NCC(=O)N[C@@H](CCCNC(=N)N)C(=O)N[C@@H](CCCNC(=N)N)C(=O)N[C@@H](CCCCN)C(=O)N[C@@H](CCCNC(=N)N)C(=O)N[C@@H](CCCNC(=N)N)C(=O)N[C@@H](CCC(N)=O)C(=O)N[C@@H](CCCNC(=N)N)C(=O)N[C@@H](CCCNC(=N)N)C(=O)N[C@@H](CCCNC(=N)N)C(N)=O)NC(=O)[C@H](C)NC(=O)[C@H](Cc2cccc3ccccc23)NC(=O)[C@H](CCCNC(=N)N)NC(=O)[C@@H](Cc2ccc3ccccc3c2)NC(=O)[C@H](Cc2c[nH]cn2)NC(=O)[C@H](CCC(=O)O)NC1=O`, the EC50 on hMC1-R amounted to 0.029 µM; on hMC5-R it was 0.173 µM. For the same molecule, the Kb came to 0.0167 µM at hMC4-R and 0.0226 µM at hMC3-R.

Take `CC(=O)N[C@H]1CSSC[C@@H](C(=O)N2CCC[C@H]2C(=O)N2CCC[C@H]2C(=O)N[C@@H](CCCCN)C(=O)N[C@@H](CC(=O)O)C(=O)NCCC(=O)NCC(=O)N[C@@H](CCCNC(=N)N)C(=O)N[C@@H](CCCNC(=N)N)C(=O)N[C@@H](CCCCN)C(=O)N[C@@H](CCCNC(=N)N)C(=O)N[C@@H](CCCNC(=N)N)C(=O)N[C@@H](CCC(N)=O)C(=O)N[C@@H](CCCNC(=N)N)C(=O)N[C@@H](CCCNC(=N)N)C(=O)N[C@@H](CCCNC(=N)N)C(N)=O)NC(=O)[C@H](C)NC(=O)[C@H](Cc2cccc3ccccc23)NC(=O)[C@H](CCCNC(=N)N)NC(=O)[C@@H](Cc2ccc3ccccc3c2)NC(=O)[C@H](Cc2c[nH]cn2)NC(=O)[C@H](CCC(=O)O)NC1=O`: the EC50 came out at 0.0266 µM at hMC1-R and 0.351 µM on hMC5-R. Besides, the Kb on hMC4-R was found to be 0.00934 µM; on hMC3-R it was 0.101 µM.

Regarding `CC(=O)N[C@H]1CSSC[C@@H](C(=O)N2CCC[C@H]2C(=O)N2CCC[C@H]2C(=O)N[C@@H](CCCCN)C(=O)N[C@@H](CC(=O)O)C(=O)NCCC(=O)NCC(=O)N[C@@H](CCCNC(=N)N)C(=O)N[C@@H](CCCCN)C(=O)N[C@@H](CCCNC(=N)N)C(=O)N[C@@H](CCCNC(=N)N)C(=O)N[C@@H](CCCNC(=N)N)C(=O)N[C@@H](CCC(N)=O)C(=O)N[C@@H](CCCNC(=N)N)C(=O)N[C@@H](CCCNC(=N)N)C(=O)N[C@@H](CCCNC(=N)N)C(N)=O)NC(=O)[C@H](C)NC(=O)[C@H](Cc2cccc3ccccc23)NC(=O)[C@H](CCCNC(=N)N)NC(=O)[C@@H](Cc2ccc3ccccc3c2)NC(=O)[C@H](Cc2c[nH]cn2)NC(=O)[C@H](CCC(=O)O)NC1=O`, the concentration giving a half-maximal response (EC50) at hMC1-R came to 0.0455 µM; at hMC5-R, 0.149 µM. Besides, the Kb at hMC4-R amounted to 0.00635 µM; on hMC3-R it was 0.181 µM.

Regarding `CC(=O)N[C@H]1CSSC[C@@H](C(=O)N2CCC[C@H]2C(=O)N2CCC[C@H]2C(=O)N[C@@H](CCCCN)C(=O)N[C@@H](CC(=O)O)C(=O)NCCC(=O)N[C@@H](CCCNC(=N)N)C(=O)N[C@@H](CCCCN)C(=O)N[C@@H](CCCNC(=N)N)C(=O)N[C@@H](CCCNC(=N)N)C(=O)N[C@@H](CCCNC(=N)N)C(=O)N[C@@H](CCC(N)=O)C(=O)N[C@@H](CCCNC(=N)N)C(=O)N[C@@H](CCCNC(=N)N)C(=O)N[C@@H](CCCNC(=N)N)C(N)=O)NC(=O)[C@H](C)NC(=O)[C@H](Cc2ccc3ccccc3c2)NC(=O)[C@H](CCCNC(=N)N)NC(=O)[C@@H](Cc2ccc3ccccc3c2)NC(=O)[C@H](Cc2c[nH]cn2)NC(=O)[C@H](CCC(=O)O)NC1=O`, the EC50 amounted to 0.0237 µM on hMC1-R and 0.0397 µM on hMC5-R. The Kb stood at 0.00587 µM at hMC4-R and 0.00922 µM on hMC3-R.

Regarding `CC(=O)N[C@H]1CSSC[C@@H](C(=O)N2CCC[C@H]2C(=O)N2CCC[C@H]2C(=O)N[C@@H](CCCCN)C(=O)N[C@@H](CC(=O)O)C(=O)NCCC(=O)N[C@@H](Cc2ccc(O)cc2)C(=O)NCC(=O)N[C@@H](CCCNC(=N)N)C(=O)N[C@@H](CCCCN)C(=O)N[C@@H](CCCNC(=N)N)C(=O)N[C@@H](CCCNC(=N)N)C(=O)N[C@@H](CCCNC(=N)N)C(=O)N[C@@H](CCC(N)=O)C(=O)N[C@@H](CCCNC(=N)N)C(=O)N[C@@H](CCCNC(=N)N)C(=O)N[C@@H](CCCNC(=N)N)C(N)=O)NC(=O)[C@H](C)NC(=O)[C@H](Cc2ccc3ccccc3c2)NC(=O)[C@H](CCCNC(=N)N)NC(=O)[C@@H](Cc2ccc3ccccc3c2)NC(=O)[C@H](Cc2c[nH]cn2)NC(=O)[C@H](CCC(=O)O)NC1=O`, the EC50 is 0.0347 µM at hMC1-R and 0.0282 µM at hMC5-R. For the same molecule, the Kb turned out to be 0.00868 µM on hMC4-R and 0.015 µM at hMC3-R.

As to `CC(=O)N[C@H]1CSSC[C@@H](C(=O)N2CCC[C@H]2C(=O)N2CCC[C@H]2C(=O)N[C@@H](CCCCN)C(=O)N[C@@H](CC(=O)O)C(=O)NCCC(=O)N[C@@H](Cc2ccc(O)cc2)C(=O)NCC(=O)N[C@@H](CCCNC(=N)N)C(=O)N[C@@H](CCCCN)C(=O)N[C@@H](CCCCN)C(=O)N[C@@H](CCC(N)=O)C(=O)N[C@@H](CCCNC(=N)N)C(=O)N[C@@H](CCCNC(=N)N)C(=O)N[C@@H](CCCNC(=N)N)C(=O)N[C@@H](CCCNC(=N)N)C(=O)N[C@@H](CCCNC(=N)N)C(N)=O)NC(=O)[C@H](C)NC(=O)[C@H](Cc2c[nH]c3ccccc23)NC(=O)[C@H](CCCNC(=N)N)NC(=O)[C@@H](Cc2ccc3ccccc3c2)NC(=O)[C@H](Cc2c[nH]cn2)NC(=O)[C@H](CCC(=O)O)NC1=O`, the half-maximal effective concentration (EC50) stood at 0.0067 µM at hMC1-R (setting [1]) and 0.0462 µM on hMC5-R (setting [3]). Besides, the Kb at hMC4-R (setting [2]) amounted to 0.0117 µM; at hMC3-R (setting [4]), 0.00938 µM.

With `CC(=O)N[C@H]1CSSC[C@@H](C(=O)N2CCC[C@H]2C(=O)N2CCC[C@H]2C(=O)N[C@@H](CCCCN)C(=O)N[C@@H](CC(=O)O)C(=O)NCCC(=O)N[C@@H](Cc2ccc(O)cc2)C(=O)NCC(=O)N[C@@H](CCCNC(=N)N)C(=O)N[C@@H](CCCCN)C(=O)N[C@@H](CCCCN)C(=O)N[C@@H](CCCNC(=N)N)C(=O)N[C@@H](CCCNC(=N)N)C(=O)N[C@@H](CCCNC(=N)N)C(=O)N[C@@H](CCCNC(=N)N)C(=O)N[C@@H](CCC(N)=O)C(=O)N[C@@H](CCCNC(=N)N)C(N)=O)NC(=O)[C@H](C)NC(=O)[C@H](Cc2c[nH]c3ccccc23)NC(=O)[C@H](CCCNC(=N)N)NC(=O)[C@@H](Cc2ccc3ccccc3c2)NC(=O)[C@H](Cc2c[nH]cn2)NC(=O)[C@H](CCC(=O)O)NC1=O`, the EC50 was 0.0169 µM at hMC1-R (setting [1]) and 0.0589 µM on hMC5-R (setting [3]). In addition, the Kb at hMC4-R (setting [2]) worked out at 0.00712 µM; on hMC3-R (setting [4]), 0.036 µM.

As for `CC(=O)N[C@H]1CSSC[C@@H](C(=O)N2CCC[C@H]2C(=O)N2CCC[C@H]2C(=O)N[C@@H](CCCCN)C(=O)N[C@@H](CC(=O)O)C(=O)NCCC(=O)N[C@@H](Cc2ccc(O)cc2)C(=O)NCC(=O)N[C@@H](CCCNC(=N)N)C(=O)N[C@@H](CCCCN)C(=O)N[C@@H](CCC(N)=O)C(=O)N[C@@H](CCCCN)C(=O)N[C@@H](CCCNC(=N)N)C(=O)N[C@@H](CCCNC(=N)N)C(=O)N[C@@H](CCCNC(=N)N)C(=O)N[C@@H](CCCNC(=N)N)C(=O)N[C@@H](CCCNC(=N)N)C(N)=O)NC(=O)[C@H](C)NC(=O)[C@H](Cc2c[nH]c3ccccc23)NC(=O)[C@H](CCCNC(=N)N)NC(=O)[C@@H](Cc2ccc3ccccc3c2)NC(=O)[C@H](Cc2c[nH]cn2)NC(=O)[C@H](CCC(=O)O)NC1=O`, the EC50 came out at 0.0079 µM on hMC1-R (setting [1]) and 0.0624 µM at hMC5-R (setting [3]). The Kb at hMC4-R (setting [2]) amounted to 0.0109 µM; on hMC3-R (setting [4]), 0.0417 µM.
